Test results reported in the CheMixHub viscosity set.

Test: xn = mol fraction of the nth substance listed

O=S(=O)([O-])[O-].[NH3+]O.[NH3+]O + O
viscosity [mPa·s], 101 kPa
Conditions | x1 = 0.001 | x1 = 0.002 | x1 = 0.006 | x1 = 0.012 | x1 = 0.019 | x1 = 0.027 | x1 = 0.035 | x1 = 0.045
293.15 K | 1.022 | 1.046 | 1.134 | 1.264 | 1.435 | 1.678 | 1.925 | 2.198
298.15 K | 0.905 | 0.931 | 0.995 | 1.121 | 1.277 | 1.481 | 1.706 | 1.983
303.15 K | 0.811 | 0.831 | 0.89 | 1.006 | 1.148 | 1.317 | 1.523 | 1.849
313.15 K | 0.666 | 0.683 | 0.734 | 0.825 | 0.937 | 1.075 | 1.244 | 1.508
323.15 K | 0.559 | 0.573 | 0.616 | 0.693 | 0.791 | 0.901 | 1.04 | 1.247

COCCOCCOC + CC(C)CO
viscosity [mPa·s], 101 kPa
Conditions | x1 = 0.104 | x1 = 0.2048 | x1 = 0.3058 | x1 = 0.4023 | x1 = 0.5027 | x1 = 0.605 | x1 = 0.7019 | x1 = 0.8023 | x1 = 0.9024
298.15 K | 2.146 | 1.635 | 1.377 | 1.231 | 1.136 | 1.076 | 1.038 | 1.011 | 0.995
308.15 K | 1.649 | 1.302 | 1.121 | 1.013 | 0.947 | 0.904 | 0.876 | 0.856 | 0.846
318.15 K | 1.284 | 1.047 | 0.938 | 0.845 | 0.796 | 0.78 | 0.747 | 0.733 | 0.726

COCCOCCOC + CCCCO
viscosity [mPa·s], 101 kPa
Conditions | x1 = 0.1051 | x1 = 0.2018 | x1 = 0.3019 | x1 = 0.4029 | x1 = 0.5049 | x1 = 0.6017 | x1 = 0.7049 | x1 = 0.7983 | x1 = 0.9023
298.15 K | 1.866 | 1.542 | 1.304 | 1.178 | 1.103 | 1.048 | 1.019 | 0.998 | 0.989
308.15 K | 1.48 | 1.252 | 1.074 | 0.983 | 0.924 | 0.883 | 0.863 | 0.849 | 0.842
318.15 K | 1.186 | 1.028 | 0.906 | 0.827 | 0.782 | 0.762 | 0.74 | 0.73 | 0.723

COCCOCCOC + c1ccc2c(c1)CCCC2
viscosity [mPa·s], 101.33 kPa
Conditions | x1 = 0.1028 | x1 = 0.1977 | x1 = 0.3019 | x1 = 0.3993 | x1 = 0.5009 | x1 = 0.666 | x1 = 0.7016 | x1 = 0.7949 | x1 = 0.8987
298.15 K | 1.786 | 1.637 | 1.5 | 1.396 | 1.294 | 1.197 | 1.144 | 1.087 | 1.032
303.15 K | 1.619 | 1.487 | 1.367 | 1.275 | 1.185 | 1.071 | 1.05 | 1 | 0.95
308.15 K | 1.472 | 1.355 | 1.249 | 1.17 | 1.087 | 0.984 | 0.967 | 0.922 | 0.879
313.15 K | 1.348 | 1.245 | 1.15 | 1.078 | 1.004 | 0.913 | 0.897 | 0.859 | 0.815
